ChEMBL document CHEMBL5625273, “Antiproliferative activities through accelerating autophagic flux by basidalin and its analogs in human cancer cells” (Bioorg Med Chem Lett, 2024)
The source made the active and inactive calls. The rule behind the calls is not given here.

How the values were obtained:
Type in all cases: functional, cell-based
[1] = system: SK-MEL-28; test: Antiproliferative activity against human SK-MEL-28 cells by MTT assay
[2] = system: HeLa; test: Induction of autophagy in human HeLa cells assessed as increase in LC3-II expression incubated for 24 hrs by Western blot analysis; conditions: dose 1-30 µM
[3] = system: PC-3; test: Antiproliferative activity against human PC-3 cells by MTT assay
[4] = system: HCT-116; test: Antiproliferative activity against human HCT-116 cells by MTT assay
[5] = system: HeLa; test: Induction of autophagic flux in human HeLa cells assessed as increase in LC3-II expression at 30 to 100 uM incubated for 24 hrs in presence of E64D by Western blot analysis; conditions: dose 30-100 µM
[6] = system: SH-SY5Y; test: Induction of autophagic flux in human SH-SY5Y cells expressing GFP-LC3 assessed as increase in LC3 punctae co-localized with LAMP1 at 30 to 100 uM incubated for 24 hrs in presence of E64D; conditions: dose 30-100 µM
[7] = system: HT-1080; test: Antiproliferative activity against human HT-1080 cells by MTT assay
[8] = system: HeLa; test: Effect on p70S6K phosphorylation in human HeLa cells at 1 to 30 uM incubated for 24 hrs by Western blot analysis; conditions: dose 1-30 µM
[9] = system: MCF7; test: Antiproliferative activity against human MCF7 cells by MTT assay
[10] = system: HeLa; test: Antiproliferative activity against human HeLa cells by MTT assay
[11] = system: HeLa; test: Induction of autophagic flux in human HeLa cells assessed as increase in LC3-II expression at 30 to 100 uM incubated for 24 hrs in presence of pepA by Western blot analysis; conditions: dose 30-100 µM
[12] = system: PANC-1; test: Antiproliferative activity against human PANC-1 cells by MTT assay
[13] = system: SH-SY5Y; test: Induction of autophagic flux in human SH-SY5Y cells expressing GFP-LC3 assessed as increase in LC3 punctae co-localized with LAMP1 at 30 to 100 uM incubated for 24 hrs in presence of pepA; conditions: dose 30-100 µM
[14] = system: HeLa; test: Effect on p70S6K phosphorylation in human HeLa cells at 100 uM incubated for 24 hrs by Western blot analysis
[15] = system: HeLa; test: Induction of autophagy in human HeLa cells assessed as increase in LC3-II expression at 100 uM incubated for 24 hrs by Western blot analysis

## NC1=CC(=O)O/C1=C/C=O
[1]
  IC50: 5.87 µM
[2]
  Activity: Dose-Dependent Effect
[3]
  IC50: 9.79 µM
[4]
  IC50: 5.35 µM
[5]
  Activity: Active
[6]
  Activity: Active
[7]
  IC50: 11.6 µM
[8]
  Activity: inactive
[9]
  IC50: 7.87 µM
[10]
  IC50: 15.6 µM
[11]
  Activity: Active
[12]
  IC50: 5.29 µM
[13]
  Activity: Active

## CC(=O)NC1=CC(=O)O/C1=C/C(OC(C)=O)OC(C)=O
[1]
  IC50: 37.1 µM
[3]
  IC50: 42.6 µM
[4]
  IC50: 29.9 µM
[7]
  IC50: 40.8 µM
[9]
  IC50: 22.4 µM
[10]
  IC50: 44.8 µM
[14]
  Activity: inactive
[15]
  Activity: Active
[12]
  IC50: 31.3 µM

## NC1=CC(=O)O/C1=C/CO
[1]
  IC50: > 100 µM
[3]
  IC50: > 100 µM
[4]
  IC50: > 100 µM
[7]
  IC50: > 100 µM
[9]
  IC50: > 100 µM
[10]
  IC50: > 100 µM
[12]
  IC50: > 100 µM

## NC1=CC(=O)OC1CCO (stereo not given)
[1]
  IC50: > 100 µM
[3]
  IC50: > 100 µM
[4]
  IC50: > 100 µM
[7]
  IC50: > 100 µM
[9]
  IC50: > 100 µM
[10]
  IC50: > 100 µM
[12]
  IC50: > 100 µM

## CC(=O)NC1=CC(=O)O/C1=C/C=O
[1]
  IC50: 12.3 µM
[3]
  IC50: 21.7 µM
[4]
  IC50: 27.2 µM
[7]
  IC50: 46.1 µM
[9]
  IC50: 38.8 µM
[10]
  IC50: 27.7 µM
[14]
  Activity: inactive
[15]
  Activity: Active
[12]
  IC50: 16.1 µM
